From ChEMBL document CHEMBL1201862, “PubChem BioAssay data set” (2004)
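A five-concentration, 48-hour dose response in 96-well plates underlies each endpoint, interpolated linearly between surrounding concentrations. GI50 = concentration required for 50% inhibition of growth.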 Activity calls are given as the source filed them. Rule as the data show it: active = GI50 up to about 1.1 µM and inactive = higher.

What was measured:
Assay in all cases: NCI anticancer screen, dose series, 48 h
Malme-3M = test system: Malme-3M
A549 = test system: A549
UO-31 = test system: UO-31
MOLT-4 = test system: MOLT-4
LOX IMVI = test system: LOX IMVI
M14 = test system: M14
K562 = test system: K562
UACC-62 = test system: UACC-62
SR = test system: SR
A498 = test system: A498
MDA-MB-231 = test system: MDA-MB-231
NCI-H460 = test system: NCI-H460
IGROV-1 = test system: IGROV-1
KM12 = test system: KM12
HOP-92 = test system: HOP-92
SN12C = test system: SN12C
BT-549 = test system: BT-549
CCRF-CEM = test system: CCRF-CEM
EKVX = test system: EKVX
U-251 = test system: U-251

Measured: GI50

CN(CCC(=O)O)S(=O)(=O)c1ccccc1
inactive: Malme-3M > 100 µM | A549 > 100 µM | UO-31 > 100 µM | MOLT-4 > 100 µM | LOX IMVI > 100 µM | M14 > 100 µM | K562 > 100 µM | UACC-62 > 100 µM | SR > 100 µM | A498 > 100 µM | MDA-MB-231 > 100 µM | NCI-H460 > 100 µM | IGROV-1 > 100 µM | KM12 > 100 µM | HOP-92 > 100 µM | SN12C > 100 µM | BT-549 > 100 µM | CCRF-CEM > 100 µM | EKVX > 100 µM | U-251 > 100 µM

C[N+](C)([O-])Cc1cc(-c2ccccc2)ccc1O
inactive: Malme-3M > 100 µM | A549 > 100 µM | UO-31 > 100 µM | MOLT-4 52.5 µM | LOX IMVI > 100 µM | M14 > 100 µM | K562 > 100 µM | UACC-62 > 100 µM | SR 49.1 µM | A498 > 100 µM | MDA-MB-231 > 100 µM | NCI-H460 72.8 µM | IGROV-1 > 100 µM | KM12 > 100 µM | HOP-92 > 100 µM | SN12C > 100 µM | BT-549 > 100 µM | EKVX > 100 µM | U-251 > 100 µM

C=C[C@]1(C)C[C@@H](OC(=O)CO)[C@@]2(C)[C@H](C)CC[C@]3(CCC(=O)[C@H]32)[C@@H](C)[C@@H]1O
inactive: Malme-3M 83.4 µM | A549 > 100 µM | UO-31 > 63.5 µM | MOLT-4 37.5 µM | LOX IMVI > 31.6 µM | M14 > 78.9 µM | K562 40 µM | UACC-62 7.59 µM | SR > 43.4 µM | A498 > 54.6 µM | MDA-MB-231 > 100 µM | NCI-H460 > 61.2 µM | IGROV-1 > 91.2 µM | KM12 > 100 µM | HOP-92 > 86.1 µM | SN12C > 100 µM | BT-549 > 61.4 µM | EKVX > 100 µM | U-251 > 79.3 µM
